Source: patent US20010041745A1, “Methods for increasing levels of acetylcholine” (priority 1999, published 2001)
Counter-ions that a name gives are not always drawn.

Tests used:
[1] = tested on: choline acetyltransferase (ChAT); assay: ChAT activity in hippocampus and frontal cortex homogenates of ovariectomized (OVX) rats, radio-labelled assay of acetylcholine bio-synthesis; format: in vivo, female Sprague-Dawley rats; conditions: dosed daily s.c. or oral gavage for 10 days; for levels of ChAT, difference from the sham controls: same doses as E1; for levels of ChAT versus the OVX controls: tamoxifen 3 or 10 mg/kg/day, raloxifene hydrochloride 3 mg/kg/day, estradiol benzoate 0.03 or 0.3 mg/kg/day
Description: Forty female Sprague-Dawley rats (weight range of 300 to 325 g, six months old) are obtained from Harlan. The animals are either bilaterally ovariectomized (OVX) or exposed to a Sham surgical procedure, and then shipped after about one week. Upon arrival, they are housed in metal hanging cages in groups of 3 or 4 per cage and have ad libitum access to food and water for one week. Room temperature is maintained at 22.20±1.7° C. with a minimum relative humidity of 40%. The photoperiod in the room is 12 hours light and 12 hours dark.
The animals are dosed daily by subcutaneous injection or oral gavage with either tamoxifen, at 3 mg/kg/day or 10 mg/kg/day in a vehicle containing 10% cyclodextrin, raloxifene hydrochloride, at 3 mg/kg/day in a vehicle containing 10% cyclodextrin, estradiol benzoate at 0.03 or 0.3 mg/kg/day, or vehicle control. Animals were treated for 10 days. There are twenty animals per each dosing regimen. At the appropriate time intervals, the animals are sacrificed and their brains dissected. The particular portions of the brains are homogenized and assayed. Homogenates from the hippocampus and frontal cortex were processed and determination of ChAT activity was made by a radio-labelled assay of the bio-synthesis of acetylcholine. This procedure may be found in Schoepp et al., J. Neural Transmiss., 78:183-193, 1989, the teachings of which are incorporated by reference.

[2] = Amelioration of Alzheimer's disease in post-menopausal women after chronic administration; format: in vivo, human; conditions: post-menopausal women with Alzheimer's disease; 20 mg per day, oral, 2-12 months
Description: Thus, the current invention provides methods for the treatment and prophylaxis of syndromes related to the loss of memory, learning, and cognitive function, often seen in women who are estrogen deprived, especially post-menopausal women. An example of such a syndrome is senile dementia of the Alzheimer's type. Beneficial effects, such as a decrease in memory loss, associated with administration of a compound of this invention become apparent after chronic administration.

[3] = Prophylactic use: cognitive and memory function by standard tests in peri- or post-menopausal women; format: in vivo, human; conditions: 20 mg/day, oral, 1-5 years
Description: The methods of the present invention may also be employed in a prophylactic modality. […] Following the establishment of this baseline, the women are administered tamoxifen at 20 mg/day, via the oral route, for a period 1-5 years.

ChAT = conditions: rats; literature (Luine et al. 1980, Luine 1985, Singh et al. 1994); cited from earlier work

Compound	levels of ChAT, difference from the sham controls [1]	levels of ChAT versus the OVX controls [1]	effect on Alzheimer's disease [2]	cognitive and memory functions relative to matched patients given placebo [3]	level of acetylcholine / ChAT in the hippocampus (ChAT)
O=C(c1ccc(OCCN2CCCCC2)cc1)c1c(-c2ccc(O)cc2)sc2cc(O)ccc12 [raloxifene hydrochloride]	insignificant difference	significantly (p<0.01) increased levels of ChAT			
CC/C(=C(\c1ccccc1)c1ccc(OCCN(C)C)cc1)c1ccccc1 [tamoxifen]	insignificant difference	significantly (p<0.05) increased levels of ChAT	amelioration of their disease	decrease in loss of these functions	
C[C@]12CC[C@@H]3c4ccc(OC(=O)c5ccccc5)cc4CC[C@H]3[C@@H]1CC[C@@H]2O [estradiol benzoate]	insignificant difference	significantly (p<0.01) increased levels of ChAT			
estrogen					increases the level of acetylcholine by up-regulating ChAT
